According to US20240409552A1, “GUAIANOLIDE OLIGOMERS, PREPARATION METHOD AND APPLICATION” (KUNMING INSTITUTE OF BOTANY, CHINESE ACADEMY OF SCIENCES, priority 2021, published 2024):

Legend:
Assay type in all cases: cell-based
SK-Hep-1 cells = experiment: MTT antihepatoma assay, SK-Hep-1 cells; conditions: Homo sapiens, SK-HEP1, 48 h incubation
Description: (§1) • (1). […] The plates were measured at 490 nm using a microplate reader (BIO-RAD, USA). The inhibitory ratio was calculated as [(A490 negative−A490 treated)/(A490 negative−A490 blank)]×100%. The IC50 values were calculated with GraphPad Prism 5 (GraphPad Software, California, USA). Repeat the experiment three times.

HepG2 cells = experiment: MTT antihepatoma assay, HepG2 cells; conditions: Homo sapiens, 48 h incubation
Description: as §1

Huh7 cells = experiment: MTT antihepatoma assay, Huh7 cells; conditions: Homo sapiens, Huh-7, 48 h incubation
Description: as §1

Structure (SMILES) | IC50 (SK-Hep-1 cells) | IC50 (HepG2 cells) | IC50 (Huh7 cells)
C=C1C(=O)O[C@@H]2C3=C([C@H]4C[C@]3(C)[C@]3(C4)C(=O)O[C@H]4[C@H]3CCC(C)=C3C[C@H]5O[C@@]5(C)[C@@H]34)[C@@](C)(O)CC[C@@H]12 [Compound 1] | 11.2 µM | 12.8 µM | 20.2 µM
C=C1C(=O)O[C@@H]2C3=C([C@H]4C[C@]3(C)[C@]3(C4)C(=O)O[C@@H]4C5C(=C(C)CC[C@H]43)CC[C@@]5(C)O)[C@@](C)(O)CC[C@@H]12 (stereo partly drawn) [Compound 2] | 16.5 µM | 5.9 µM | 11.9 µM
CNC(=O)c1cc(Oc2ccc(NC(=O)Nc3ccc(Cl)c(C(F)(F)F)c3)cc2)ccn1 [sorafenib, reference compound] | 22.5 µM | 12.8 µM | 10.9 µM

More lines, now with the values ahead:

IC50 (SK-Hep-1 cells) | IC50 (HepG2 cells) | IC50 (Huh7 cells) | Structure (SMILES)
7.2 µM | 6.2 µM | 6.8 µM | C=C1C(=O)O[C@@H]2C3=C([C@H]4C[C@]3(C)[C@]3(C4)C(=O)O[C@@H]4C5=C([C@H]6C[C@]5(C)[C@]5(C6)C(=O)O[C@@H]6[C@H]7C(C)=CC[C@@]78O[C@@]8(C)CC[C@H]65)[C@@](C)(O)CC[C@H]43)[C@@](C)(O)CC[C@@H]12 [Compound 3]
7.9 µM | 14.7 µM | 10.9 µM | C=C1C(=O)O[C@@H]2C3=C([C@H]4C[C@]3(C)[C@]3(C4)C(=O)O[C@@H]4C5=C([C@H]6C[C@]5(C)[C@]5(C6)C(=O)O[C@@H]6C7=C([C@H]8C[C@]7(C)[C@]7(C8)C(=O)O[C@@H]8[C@H]9C(C)=CC[C@@]9%10O[C@@]%10(C)CC[C@@H]87)[C@@](C)(O)CC[C@H]65)[C@@](C)(O)CC[C@H]43)[C@@](C)(O)CC[C@@H]12 [Compound 4]
